In patent US20250221988A1 (Cullgen (Shanghai), Inc., priority 2022, published 2025):
Read-outs that look alike come from different tables or passages of the source.

Assays:
MOLM-13 cells = test: Cell viability assay (CellTiter-Glo) in MOLM-13 cells; assay type: cell-based
Procedure: (§1) Cell Culture: RS4;11, MV4;11, MOLM-13 and other cells were cultured at 37° C. with 5% CO2 in RPMI 1640 or DMEM Medium supplemented with 10% fetal bovine serum. Cells were authenticated using the short tandem repeat (STR) assays. Mycoplasma test results were negative.
Cell viability assays: Cells were seeded at a density of 5000 cells per well in 96-well assay plates and treated with test compounds following a 8-point or 12-point 3-fold serial dilution. Three days later, cell viability was determined using the CellTiter-Glo assay kit according to the manufacturer's instructions. The dose-response curves were determined and IC50 values were calculated using the GraphPad Prism software following a nonlinear regression (least squares fit) method. […]

MV4;11 cells = test: Cell viability assay (CellTiter-Glo) in MV4;11 cells; assay type: cell-based; conditions: read-out: MV4
Procedure: as §1
Cell viability assays: Cells were seeded at a density of 5000 cells per well in 96-well assay plates and treated with test compounds following a 8-point or 12-point 3-fold serial dilution. Three days later, cell viability was determined using the CellTiter-Glo assay kit according to the manufacturer's instructions. The dose-response curves were determined and IC50 values were calculated using the GraphPad Prism software following a nonlinear regression (least squares fit) method.
The IC50 values (nM) of each compound were determined in MV4;11 and MOLM-13 cells with or without gilteritinib (10 nM for MV4;11; and 20 nM for MOML-13) as described in the Materials and Methods subsection and calculated using the GraphPad Prism 5.0 software.

[1] = Homo sapiens, 72 h, MOLM-13 cells, compound alone, three days, read-out: MOLM-13 IC50
[2] = MOLM-13 cells, with gilteritinib, three days, read-out: MOLM-13 IC50 (nM) + 10 nM Gil
[3] = Homo sapiens, MV4-11, 72 h, MV4;11 cells, compound alone, three days, 11 IC50
[4] = MV4;11 cells, with 10 nM gilteritinib, three days, 11 IC50 (nM) + 10 nM Gil

SMILES	IC50 (MOLM-13 cells; Homo sapiens, MOLM-13, 72 h, read-out: MOLM-13 IC50 (nM)) [nM]	IC50 (MOLM-13 cells; read-out: MOLM-13 IC50 (nM) + 10 nM Gil, MOLM-13 cells, with gilteritinib, three days) [nM]	IC50 (MV4;11 cells; Homo sapiens, MV4-11, 72 h, 11 IC50 (nM)) [nM]	IC50 (MOLM-13 cells; [1]) [nM]	IC50 (MOLM-13 cells; [2]) [nM]	IC50 (MV4;11 cells; [3]) [nM]	IC50 (MV4;11 cells; [4]) [nM]
O=C1CCC(N2C(=O)c3ccc(NC[C@H]4C[C@H](n5cc(Nc6ccncc6)c(C6CC6)n5)C4)cc3C2=O)C(=O)N1 (stereo partly drawn) [GS-671, 5-(((Trans-3-(3-cyclopropyl-4-(pyridin-4-ylamino)-1H-pyrazol-1-yl)cyclobutyl)methyl)amino)-2-(2,6-dioxopiperidin-3-y)isoindoline-1,3-dione]	> 1000	100 to 1000	> 1000	–	–	–	–
Cc1ccc2c(C3CC3)nn([C@H]3C[C@H](CNc4ccc5c(c4)C(=O)N(C4CCC(=O)NC4=O)C5=O)C3)c2n1 (stereo partly drawn) [GS-672, 5-(((Trans-3-(3-cyclopropyl-6-methyl-1H-pyrazolo[3,4-b]pyridin-1-yl)cyclobutyl)methyl)amino)-2-(2,6-dioxopiperidin-3-yl)isoindoline-1,3-dione]	–	–	–	> 1000	100 to 1000	> 1000	–
Cc1cnc2c(c1)c(C1CC1)nn2[C@H]1C[C@H](CNc2ccc3c(c2)C(=O)N(C2CCC(=O)NC2=O)C3=O)C1 (stereo partly drawn) [GS-673, 5-(((Trans-3-(3-cyclopropyl-5-methyl-1H-pyrazolo[3,4-b]pyridin-1-yl)cyclobutyl)methyl)amino)-2-(2,6-dioxopiperidin-3-yl)isoindoline-1,3-dione]	–	–	–	> 1000	100 to 1000	> 1000	100 to 1000
COc1ccc2c(C3CC3)nn([C@H]3C[C@H](CNc4ccc5c(c4)C(=O)N(C4CCC(=O)NC4=O)C5=O)C3)c2n1 (stereo partly drawn) [GS-674, 5-(((Trans-3-(3-cyclopropyl-6-methoxy-1H-pyrazolo[3,4-b]pyridin-1-yl)cyclobutyl)methyl)amino)-2-(2,6-dioxopiperidin-3-yl)isoindoline-1,3-dione]	–	–	–	> 1000	–	> 1000	–
O=C1CCC(N2C(=O)c3ccc(NC[C@H]4C[C@H](n5cc(-c6cc7c(cn6)cnn7C6CNC6)c(C6CC6)n5)C4)cc3C2=O)C(=O)N1 (stereo partly drawn) [GS-675, 5-(((Trans-3-(4-(1-(azetidin-3-yl)-1H-pyrazolo[4,3-c]pyridin-6-yl)-3-cyclopropyl-1H-pyrazol-1-yl)cyclobutyl)methyl)amino)-2-(2,6-dioxopiperidin-3-yl)isoindoline-1,3-dione]	–	–	–	> 1000	100 to 1000	> 1000	100 to 1000
Cc1cc(F)cnc1-c1cn([C@H]2C[C@H](CNc3ccc4c(c3)CN(C3CCC(=O)NC3=O)C4=O)C2)nc1C1CC1 (stereo partly drawn) [GS-676, 3-(5-(((Trans-3-(3-cyclopropyl-4-(5-fluoro-3-methylpyridin-2-yl)-1H-pyrazol-1-yl)cyclobutyl)methyl)amino)-1-oxoisoindolin-2-yl)piperidine-2,6-dione]	–	–	–	< 10	< 10	< 10	< 10
Cc1nc(-c2cn([C@H]3C[C@H](CNc4ccc5c(c4)CN(C4CCC(=O)NC4=O)C5=O)C3)nc2C(F)F)ccc1F (stereo partly drawn) [GS-677, 3-(5-(((Trans-3-(3-(difluoromethyl)-4-(5-fluoro-6-methylpyridin-2-yl)-1H-pyrazol-1-yl)cyclobutyl)methyl)amino)-1-oxoisoindolin-2-yl)piperidine-2,6-dione]	–	–	–	< 10	< 10	< 10	< 10
Cn1ncc2cnc(-c3cn([C@H]4C[C@H](CNc5ccc6c(c5)CN(C5CCC(=O)NC5=O)C6=O)C4)nc3C3CC3)cc21 (stereo partly drawn) [GS-678, 3-(5-(((Trans-3-(3-cyclopropyl-4-(1-methyl-1H-pyrazolo[4,3-c]pyridin-6-yl)-1H-pyrazol-1-yl)cyclobutyl)methyl)amino)-1-oxoisoindolin-2-yl)piperidine-2,6-dione]	–	–	–	< 10	< 10	< 10	< 10
Cc1ccnc2c1c(C1CC1)nn2[C@H]1C[C@H](CNc2ccc3c(c2)C(=O)N(C2CCC(=O)NC2=O)C3=O)C1 (stereo partly drawn) [GS-679, 5-(((Trans-3-(3-cyclopropyl-4-methyl-1H-pyrazolo[3,4-b]pyridin-1-yl)cyclobutyl)methyl)amino)-2-(2,6-dioxopiperidin-3-yl)isoindoline-1,3-dione]	–	–	–	> 1000	100 to 1000	> 1000	100 to 1000
CN1CC(n2cc3cnc(-c4cn([C@H]5C[C@H](CNc6ccc7c(c6)C(=O)N(C6CCC(=O)NC6=O)C7=O)C5)nc4C4CC4)cc3n2)C1 (stereo partly drawn) [GS-680, 5-(((Trans-3-(3-cyclopropyl-4-(2-(1-methylazetidin-3-yl)-2H-pyrazolo[4,3-c]pyridin-6-yl)-1H-pyrazol-1-yl)cyclobutyl)methyl)amino)-2-(2,6-dioxopiperidin-3-yl)isoindoline-1,3-dione]	–	–	–	10 to 100	< 10	< 10	< 10
COc1ccnc2c1c(C1CC1)nn2[C@H]1C[C@H](CNc2ccc3c(c2)C(=O)N(C2CCC(=O)NC2=O)C3=O)C1 (stereo partly drawn) [GS-681, 5-(((Trans-3-(3-cyclopropyl-4-methoxy-1H-pyrazolo[3,4-b]pyridin-1-yl)cyclobutyl)methyl)amino)-2-(2,6-dioxopiperidin-3-yl)isoindoline-1,3-dione]	–	–	–	> 1000	10 to 100	> 1000	100 to 1000
COc1cnc2c(c1)c(C1CC1)nn2[C@H]1C[C@H](CNc2ccc3c(c2)C(=O)N(C2CCC(=O)NC2=O)C3=O)C1 (stereo partly drawn) [GS-682, 5-(((Trans-3-(3-cyclopropyl-5-methoxy-1H-pyrazolo[3,4-b]pyridin-1-yl)cyclobutyl)methyl)amino)-2-(2,6-dioxopiperidin-3-yl)isoindoline-1,3-dione]	–	–	–	100 to 1000	10 to 100	10 to 100	< 10
O=C1CCC(N2C(=O)c3ccc(NC[C@H]4C[C@H](n5cc(-c6ncc(F)cc6N6CCNCC6)c(C6CC6)n5)C4)cc3C2=O)C(=O)N1 (stereo partly drawn) [GS-683, 5-(((Trans-3-(3-cyclopropyl-4-(5-fluoro-3-(piperazin-1-yl)pyridin-2-yl)-1H-pyrazol-1-yl)cyclobutyl)methyl)amino)-2-(2,6-dioxopiperidin-3-yl)isoindoline-1,3-dione]	–	–	–	> 1000	–	> 1000	–
O=C1CCC(N2C(=O)c3ccc(NC[C@H]4C[C@H](n5cc(-c6ccc7[nH]ncc7n6)c(C6CC6)n5)C4)cc3C2=O)C(=O)N1 (stereo partly drawn) [GS-684, 5-(((Trans-3-(3-cyclopropyl-4-(1H-pyrazolo[4,3-b]pyridin-5-yl)-1H-pyrazol-1-yl)cyclobutyl)methyl)amino)-2-(2,6-dioxopiperidin-3-yl)isoindoline-1,3-dione]	–	–	–	100 to 1000	10 to 100	10 to 100	10 to 100
O=C1CCC(N2C(=O)c3ccc(NCCC[C@H]4C[C@H](n5cc(-c6nccc7c6NCCC7)c(C6CC6)n5)C4)cc3C2=O)C(=O)N1 (stereo partly drawn) [GS-685, 5-((3-(Trans-3-(3-cyclopropyl-4-(1,2,3,4-tetrahydro-1,7-naphthyridin-8-yl)-1H-pyrazol-1-yl)cyclobutyl)propyl)amino)-2-(2,6-dioxopiperidin-3-yl)isoindoline-1,3-dione]	–	–	–	> 1000	100 to 1000	> 1000	100 to 1000
O=C1CCC(N2C(=O)c3ccc(NC[C@H]4C[C@H](n5cc(-c6ncc(F)cc6C6CCNCC6)c(C6CC6)n5)C4)cc3C2=O)C(=O)C1 (stereo partly drawn) [GS-686, 5-(((Trans-3-(3-cyclopropyl-4-(5-fluoro-3-(piperidin-4-yl)pyridin-2-yl)-1H-pyrazol-1-yl)cyclobutyl)methyl)amino)-2-(2,4-dioxocyclohexyl)isoindoline-1,3-dione]	–	–	–	> 1000	100 to 1000	> 1000	100 to 1000
